pIC50: −log10 of the molar value.
Experiments:
[1] = target: CDK4/CyclinD1 (Homo sapiens, UniProt P11802); experiment: CDK4/CyclinD1 Flashplate assay, 96-well format, biotinylated-Rb peptide substrate; type: biochemical
How it was run: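 Biotinylated Rb peptide bound to streptavidin Flashplate; CDK4/CyclinD1 (70 ng/well) preincubated 30 min on ice with compound at 10, 3, 1, 0.3 and 0.1 μM final. Reaction with 1 μM cold ATP plus 33P-ATP for 45 min at RT; incorporated 33P counted, duplicates.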

[2] = target: CDK2/CyclinE (Homo sapiens, UniProt P24941); experiment: CDK2/CyclinE Flashplate assay, 96-well format, biotinylated-Rb peptide substrate; type: biochemical
Method: This is a CDK2/CyclinE kinase assay in a 96-well Streptavidin-coated Flashplate with a biotinylated-Rb peptide substrate.
Each point is tested in duplicate
Biotinylated-Rb: Biotin-[…]-OH
• 1. Prepare substrate: 1 mg/ml solution made fresh in PBS. • 2. Add 4 μg per well to the Flashplate. • 3. Incubate for 2 hours at RT. • 4. From 10 mM inhibitor stocks in DMSO, make 1 mM, 300 μM, 100 μM, 30 μM and 10 μM series of dilution in DMSO. • 5. Was the Flashplate 3 times with 300 μl PBS to remove unbound peptide substrate. • 6. Add the CDK2/CyclinE kinase: 200 ng per well, in a volume of 90 μl in kinase buffer (except for “no enzyme” control wells). • 7. Add 1 μl per well of inhibitor to test 10 μM, 3 μM, 1 μM, 0.3 μM and 0.1 μM in final concentration per 100 μl in each well. • 8. Shake gently the Flashplate 1 minute. • 9. Incubate 30 minutes on wet ice. • 10. Initiate the reaction with 10 μl kinase buffer containing 1 μM final cold ATP and 1 μCi final ^33P-ATP per well. • 11. Shake gently the Flashplate 1 minute. • 12. Incubate 45 minutes at RT (no shaking). • 13. Wash the Flashplate 3 times with 300 μl PBS
14. Count to detect the incorporation of ^33P-ATP by the kinase to the Rb phosphorylation site.

Sequence of CDK4/CyclinD1 (P11802 whole entry, species assumed): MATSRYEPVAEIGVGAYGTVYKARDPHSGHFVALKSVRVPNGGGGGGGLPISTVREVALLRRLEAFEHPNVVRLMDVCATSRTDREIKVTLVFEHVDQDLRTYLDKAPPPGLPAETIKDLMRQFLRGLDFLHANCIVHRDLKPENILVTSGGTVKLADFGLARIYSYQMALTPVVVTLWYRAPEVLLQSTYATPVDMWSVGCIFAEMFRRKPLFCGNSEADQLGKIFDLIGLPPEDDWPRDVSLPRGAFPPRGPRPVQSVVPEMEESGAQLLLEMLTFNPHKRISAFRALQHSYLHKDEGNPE
Sequence of CDK4/CyclinD1 (P24385 whole entry partner, species assumed): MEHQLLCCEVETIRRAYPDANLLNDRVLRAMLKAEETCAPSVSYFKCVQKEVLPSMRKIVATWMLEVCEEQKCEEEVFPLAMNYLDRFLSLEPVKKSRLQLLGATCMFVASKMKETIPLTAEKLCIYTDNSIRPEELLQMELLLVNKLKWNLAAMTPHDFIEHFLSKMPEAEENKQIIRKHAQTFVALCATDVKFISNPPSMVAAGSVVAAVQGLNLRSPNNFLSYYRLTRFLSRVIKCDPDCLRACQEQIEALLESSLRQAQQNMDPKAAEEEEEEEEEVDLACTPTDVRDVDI

pIC50 [1] | pIC50 [2] | inhibition at 10 µM [1] | SMILES
6.19 | 7.22 |  | O=C(Nc1nc2cc(OS(=O)(=O)c3ccc(NC4CCCC4)cc3)ccc2[nH]1)NC1CC1 [Example 33, 4-Cyclopentylamino-benzenesulfonic acid 2-(3-cyclopropyl-ureido)-1H-benzoimidazol-5-yl ester]
6.43 | 5.74 |  | COC(=O)Nc1nc2cc(OS(=O)(=O)c3ccc(N)cc3)ccc2[nH]1 [Example 16, Methyl-5-(4-aminophenylsulfonyloxy)benzimidazole-2-carbamate]
7.92 | 7.70 |  | NC(=O)CNC(=O)Nc1nc2cc(OS(=O)(=O)c3ccc(NC4CCCC4)cc3)ccc2[nH]1 [Example 58-s, 4-Cyclopentylamino-benzenesulfonic acid 2-(3-carbamoylmethyl-ureido)-1H-benzoimidazol-5-yl ester]
7.92 | 7.22 |  | O=C(O)CNC(=O)Nc1nc2cc(OS(=O)(=O)c3ccc(NC4CCCC4)cc3)ccc2[nH]1 [Example 46, {3-[5-(4-Cyclopentylamino-benzenesulfonyloxy)-1H-benzoimidazol-2-yl]-ureido}-acetic acid]
6.40 | 5.70 |  | COCCCNc1ccc(S(=O)(=O)Oc2ccc3[nH]c(NC(=O)OC)nc3c2)cc1 [Example 13, Methyl-5-(4-[3-methoxypropyl]aminophenyl-sulfonyloxy) benzimidazole-2-carbamate]
 | 7.70 | 80% | COC(=O)[C@@H]1CCCN1C(=O)Nc1nc2cc(OS(=O)(=O)c3ccc(NC4CCCC4)cc3)ccc2[nH]1 [Example 58-r, 1-[5-(4-Cyclopentylamino-benzenesulfonyloxy)-1H-benzoimidazol-2S-yl-carbamoyl]-pyrrolidine-2-carboxylic acid methyl ester]
5.96 | 6.92 |  | CCCCNC(=O)Nc1nc2cc(OS(=O)(=O)c3ccc(NC4CCCC4)cc3)ccc2[nH]1 [Example 35, 4-Cyclopentylamino-benzenesulfonic acid 2-(3-butyl-ureido)-1H-benzoimidazol-5-yl ester]
6.30 | 7.40 |  | CN1CCN(CCCNC(=O)Nc2nc3cc(OS(=O)(=O)c4ccc(NC5CCCC5)cc4)ccc3[nH]2)CC1 [Example 58-k, 4-Cyclopentylamino-benzenesulfonic acid 2-{3-[3-(4-methyl-piperazin-1-yl)-propyl]-ureido}-1H-benzoimidazol-5-yl ester]
6.74 | 7.77 |  | O=C(NCCCN1CCCC1=O)Nc1nc2cc(OS(=O)(=O)c3ccc(NCC4CCCO4)cc3)ccc2[nH]1 (stereo not shown) [Example 59-p, 4-[(Tetrahydro-furan-2-ylmethyl)-amino]-benzenesulfonic acid 2-{3-[3-(2-oxo-pyrrolidin-1-yl)-propyl]-ureido}-1H-benzoimidazol-5-yl ester]
5.72 | 6.70 |  | CC(C)CNC(=O)Nc1nc2cc(OS(=O)(=O)c3ccc(NC4CCCC4)cc3)ccc2[nH]1 [Example 43, 4-Cyclopentylamino-benzenesulfonic acid 2-(3-isobutyl-ureido)-1H-benzoimidazol-5-yl ester]
6.96 | 7.00 |  | O=C(NCCN1CCOCC1)Nc1nc2cc(OS(=O)(=O)c3ccc(NC4CCCC4)cc3)ccc2[nH]1 [Example 58-v, 4-Cyclopentylamino-benzenesulfonic acid 2-[3-(2-morpholin-4-yl-ethyl)-ureido]-1H-benzoimidazol-5-yl ester]
 | 6.42 | 96% | O=C(Nc1ccccc1)Nc1nc2cc(OS(=O)(=O)c3ccc(NC4CCCC4)cc3)ccc2[nH]1 [Example 58-a, 4-Cyclopentylamino-benzenesulfonic acid 2-(3-phenyl-ureido)-1H-benzoimidazol-5-yl ester]
6.30 | 6.10 |  | CN(C)c1ccc(Nc2nc3cc(OS(=O)(=O)c4ccc(NC5CCCC5)cc4)ccc3[nH]2)cc1 [Example 70-e, 4-Cyclopentylamino-benzenesulfonic acid 2-(4-dimethylamino-phenylamino)-1H-benzoimidazol-5-yl ester]
 | 5.28 | 27% | O=C(Nc1nc2cc(OS(=O)(=O)c3ccc(-n4ccnc4)cc3)ccc2[nH]1)N1CCC1 [Example 57-i, 4-Imidazol-1-yl-benzenesulfonic acid 2-[(azetidine-1-carbonyl)-amino]-1H-benzoimidazol-5-yl ester]
6.62 | 7.10 |  | CCN(CC)CCNC(=O)Nc1nc2cc(OS(=O)(=O)c3ccc(NC4CCCC4)cc3)ccc2[nH]1 [Example 58-am, 4-Cyclopentylamino-benzenesulfonic acid 2-[3-(2-diethylamino-ethyl)-ureido]-1H-benzoimidazol-5-yl ester]
6.42 | 6.43 |  | O=C(NCCN1CCCCC1)Nc1nc2cc(OS(=O)(=O)c3ccc(NC4CCCC4)cc3)ccc2[nH]1 [Example 58-aj, 4-Cyclopentylamino-benzenesulfonic acid 2-[3-(2-piperidin-1-yl-ethyl)-ureido]-1H-benzoimidazol-5-yl ester]
6.47 | 7.00 |  | O=C(NCCNCCO)Nc1nc2cc(OS(=O)(=O)c3ccc(NC4CCCC4)cc3)ccc2[nH]1 [Example 58-aa, 4-Cyclopentylamino-benzenesulfonic acid 2-{3-[2-(2-hydroxy-ethylamino)-ethyl]-ureido}-1H-benzoimidazol-5-yl ester]
 | 6.05 | 70% | O=C(Nc1nc2cc(OS(=O)(=O)c3ccc(NC4CCCC4)cc3)ccc2[nH]1)NC1CCCCC1 [Example 58-b, 4-Cyclopentylamino-benzenesulfonic acid 2-(3-cyclohexyl-ureido)-1H-benzoimidazol-5-yl ester]
 | 6.30 | 70% | O=C(Nc1cccc(F)c1)Nc1nc2cc(OS(=O)(=O)c3ccc(-n4ccnc4)cc3)ccc2[nH]1 [Example 57-d, 4-Imidazol-1-yl-benzenesulfonic acid 2-[3-(3-fluoro-phenyl)-ureido]-1H-benzoimidazol-5-yl ester]
6.10 | 7.15 |  | COC(=O)Nc1nc2cc(OS(=O)(=O)c3c(F)cccc3F)ccc2[nH]1 [Example 62-h, 2,6-Difluoro-benzenesulfonic acid 2-methoxycarbonylamino-1H-benzoimidazol-5-yl ester]
6.72 | 6.60 |  | CC(C)(N)CNC(=O)Nc1nc2cc(OS(=O)(=O)c3ccc(NC4CCCC4)cc3)ccc2[nH]1 [Example 58-w, 4-Cyclopentylamino-benzenesulfonic acid 2-[3-(2-amino-2-methyl-propyl)-ureido]-1H-benzoimidazol-5-yl ester]
6.00 | 7.52 |  | O=C(NCc1ccccc1)Nc1nc2cc(OS(=O)(=O)c3ccc(NC4CCCC4)cc3)ccc2[nH]1 [Example 58-l, 4-Cyclopentylamino-benzenesulfonic acid 2-(3-benzyl-ureido)-1H-benzoimidazol-5-yl ester]
< 5.52 | < 5.00 |  | COC(=O)Nc1nc2cc(OS(=O)(=O)c3ccc(NCCc4ccccc4)cc3)ccc2[nH]1 [Example 20, Methyl-5-(4-[2-phenylethyl]aminophenylsulfonyloxy) benzimidazole-2-carbamate]

Reference: patent US20050014811A1, “Substituted benzimidazole compounds and their use for the treatment of cancer” (Aventis Pharma S.A., priority 2001, published 2005)
